Laboratory results: patent US10889553B2, “Asymmetric triazole benzamide derivatives and the compositions and methods of treatment regarding the same” (NysnoBio Ireland DAC, priority 2017, dated 2021)
Read-outs that look alike come from different tables or passages of the source.

What was measured:
Mantle Cell Mino = experiment: Cancer cell proliferation assay (acid phosphatase); assay type: cell-based; settings: Homo sapiens, Table 6E
In short: (§1)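 Seed 4×10^4 cells/ml, overnight 37° C./5% CO2; add compound (varying conc., triplicate); incubate 72 hrs; wash PBS; acid phosphatase substrate pH 5.5, 2 h; stop NaOH; read 405/620 nm; % inhibition vs DMSO.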

Ovarian (OAW42) = experiment: Cancer cell proliferation assay (acid phosphatase); assay type: cell-based; settings: Homo sapiens, OAW-42; Table 6E
In short: as §1

TOV-21G (ovarian) = experiment: Cancer cell proliferation assay (acid phosphatase); assay type: cell-based; settings: Homo sapiens, TOV21G; Table 6E; read-out: Proliferation IC50 (nM) Ovarian TOV21G
In short: as §1

JEKO-1 (lymophoma) = experiment: Cancer cell proliferation assay (acid phosphatase); assay type: cell-based; settings: Homo sapiens
In short: as §1

Ovarian (A2780) = experiment: Cancer cell proliferation assay (acid phosphatase); assay type: cell-based; settings: Homo sapiens, Table 6E
In short: as §1

TOV-112D (ovarian) = experiment: Cancer cell proliferation assay (acid phosphatase); assay type: cell-based; settings: Homo sapiens, TOV112D
In short: as §1

HCT-116 (colon) = experiment: Cancer cell proliferation assay (acid phosphatase); assay type: cell-based; settings: Homo sapiens
In short: as §1

[1] = Microsomal stability assay, rat liver microsomes; assay type: in vitro ADME; settings: pH 7.4; rat liver microsomes 1.0 mg/mL, 1 μM compound, NADPH; read-out: RLM t1/2
Procedure: (§2) Compounds were also tested for metabolic stability in both rat liver microsomes (RLM) and the compounds are tested for human liver microsomes (HLM) and their half-life is calculated (See Tables 5A and 5B). The assay was performed as follows. The total volume for each incubation was 250 μL. A 100 μM DMSO solution of compound (diluted from 10 mM stock solution) was spiked into 50 mM KH2PO4 (pH 7.4) buffer containing liver microsome at a concentration of 1.0 mg/mL. The reaction was initiated by the addition of 50 μL of 1 mM NADPH. The final concentration of each compound was 1 μM (1% DMSO). The positive controls, phenacetin for CYP1A2, diclofenac for CYP2C9, omeprazole for CYP2C19, dextromethorphan for CYP2D6 and midazolam for CYP3A4 were added to a separate tube with the final substrate concentrations of 1 μM (1% DMSO) for evaluating the enzyme activities in the liver microsomes. At 0, 15, 30 and 60 min, an aliquot of 15 μL reaction mixtures were removed and 200 μL of methanol (with internal standard of 25 ng/mL propranolol) was added to quench the reaction. The resulting mixture was centrifuged and supernatant was used for LC-MS/MS analysis.
(§3) The signals for each compound, or the metabolites for the probe substrates and the internal standard were integrated and the peak area ratios to internal standard were generated. Percent parent remaining at a specified timepoint was calculated based on the peak area ratios at time 0 (as 100%) for in vitro metabolic stability studies in liver microsome and hepatocyte. The observed rate constant (kobs) for the metabolism of substrates was calculated by plotting the natural log of percentage substrate remaining versus time of incubation with the slope being kobs. The half-life (T1/2) was calculated according to the following equation: T1/2=[…]

[2] = Microsomal stability assay, human liver microsomes; assay type: in vitro ADME; settings: pH 7.4; human liver microsomes 1.0 mg/mL, 1 μM compound, NADPH; read-out: HLM t1/2
Procedure: as §2, §3

[3] = HCT-116, 72 h, Table 6A, 72 hrs, read-out: HCT-116 IC50
[4] = Table 6B, 72 hrs, read-out: JEKO-1 IC50
[5] = Table 6B, 72 hrs, read-out: TOV-112D IC50

| Compound | IC50 (Mantle Cell Mino) [nM] | IC50 (Ovarian (OAW42)) [nM] | IC50 (TOV-21G (ovarian)) [nM] | IC50 (JEKO-1 (lymophoma); Table 6E, read-out: Proliferation IC50 (nM) Mantle Cell Jeko-1) [nM] | IC50 (Ovarian (A2780)) [nM] | IC50 (TOV-112D (ovarian); Table 6E, read-out: Proliferation IC50 (nM) Ovarian TOV112D) [nM] | IC50 (HCT-116 (colon); HCT-116, Table 6E, read-out: Proliferation IC50 (nM) CRC HCT-116) [nM] | half-life at 1 μM [1] [h] | IC50 (HCT-116 (colon); [3]) [nM] | half-life at 1 μM [2] [h] | IC50 (JEKO-1 (lymophoma); [4]) [nM] | IC50 (TOV-112D (ovarian); [5]) [nM] |
| --- | --- | --- | --- | --- | --- | --- | --- | --- | --- | --- | --- | --- |
| Cc1ccccc1C(=O)Nc1nc(NC(=O)c2ccccc2C)n(-c2ccccc2)n1 [Compound F, 2-methyl-N-[5-[(2-methylbenzoyl)amino]-1-phenyl-1,2,4-triazol-3-yl]benzamide] | 884 | > 2500 | 1500 | > 2500 | 1300 | 850 | 1300 |  |  |  |  |  |
| COc1ccccc1-c1nc(NC(=O)c2ccccc2C)n(-c2ccc(OC(F)(F)F)cc2)n1 [Compound 154] |  |  |  |  |  |  |  | 1.7 | > 2500 | 2.22 |  |  |
| Cc1ccccc1C(=O)Nc1nc(-c2ccccc2O)nn1-c1cccc(F)c1 [Compound 157] |  |  |  |  |  |  |  | 0.275 | 350 | 0.7 | 80 | 120 |
| Cc1ccccc1C(=O)Nc1nc(-c2ccccc2O)nn1-c1ccc(Cl)cc1 [Compound 155] |  |  |  |  |  |  |  | 0.29 | 240 | 1.06 | 40 | 40 |
| Cc1ccccc1C(=O)Nc1nc(-c2ccccc2O)nn1-c1ccc(C(F)(F)F)cc1 [Compound 156] |  |  |  |  |  |  |  | 0.395 | 240 | 2.63 | 80 | 40 |
| Cc1ccccc1C(=O)Nc1nc(-c2cc(Cl)ccc2O)nn1-c1ccc(OC(F)(F)F)cc1 [Compound 158] |  |  |  |  |  |  |  | 2.82 | 240 | 2.75 | 200 | 190 |
| Cc1ccc(O)c(-c2nc(NC(=O)c3ccccc3C)n(-c3ccc(OC(F)(F)F)cc3)n2)c1 [Compound 159] |  |  |  |  |  |  |  | 2.63 | 300 | 2.97 | 90 | 60 |
